Results reported in patent publication US4065354A, “Lysozyme conjugates for enzyme immunoassays” (priority 1975, dated 1977).

Tests used:
morphine antibodies [1] = experiment: inhibition of Example 2 morphine-lysozyme conjugate by antibody and recovery by morphine; assay type: biochemical
thyroxine antibodies = experiment: activity of thyroxine-lysozyme conjugate (Example 17), inhibition by antibody, return by thyroxine; assay type: biochemical
amphetamine antibody = experiment: amphetamine lysozyme conjugate enzyme immunoassay, cross-reactivity; assay type: binding; conditions: related to 1μg/ml amphetamine; 50μl of urine
Method: The next drug to be considered is amphetamine. Again, the same procedure is employed for lysozyme as for the prior assays, except that 50μl of urine is employed. The relative reactivity is related to 1μg/ml amphetamine.

methadone antibody = experiment: methadone lysozyme conjugate enzyme immunoassay (sensitivity, cross-reactivity); conditions: relative to methadone at 0.5μg/ml; ratio of concentrations giving the same optical density reading
morphine antibodies [2] = experiment: homogeneous enzyme immunoassay with morphine conjugate to lysozyme, cross-reactivity
[3] = compound concentration 300 μg/ml
[4] = compound concentration 0.3 μg/ml

With “2: 0^3 -methoxyimidoylmethylmorphine conjugated to lysozyme [Example 2]” the “recovery of enzyme activity upon addition of aqueous morphine” value (morphine antibodies [1]; antibody-inhibited conjugate) was “full recovery of activity” and the “inhibition of conjugate enzyme activity by morphine antibodies” value (morphine antibodies [1]; dialysate of Example 2) was “could be inhibited by morphine antibodies”.
In the case of “17: thyroxine methyl ester diglycolic acid derivative conjugated to lysozyme [Example 17]”, the “inhibition by thyroxine antibodies” value (thyroxine antibodies) is reported as “could be inhibited by thyroxine antibodies”, the “activity after addition of thyroxine” value (thyroxine antibodies; antibody-inhibited conjugate) is reported as “activity returned by the addition of thyroxine” and the “enzyme activity of the conjugate” value (thyroxine antibodies; product after dialysis and centrifugation) is reported as “active”.
With `CC(N)Cc1ccccc1` (stereo not drawn) [Amphetamine] the “Relative Reactivity” value (amphetamine antibody) was 1.
In the case of `CN(C)CCCN1c2ccccc2Sc2ccc(Cl)cc21` [Chlorpromazine], the “Relative Reactivity” value (methadone antibody) is reported as 0.011.
Work on `COC(=O)[C@H]1[C@@H](OC(=O)c2ccccc2)C[C@@H]2CC[C@H]1N2C` [Cocaine] yielded a Percent max. rate (morphine antibodies [2]; [3]) of 2%.
`COc1ccc2c3c1O[C@H]1[C@@H](O)C=C[C@H]4[C@@H](C2)N(C)CC[C@@]341` [Codeine] showed a Percent max. rate (morphine antibodies [2]; [4]) of 7% and a Percent max. rate (morphine antibodies [2]; compound concentration 3 μg/ml) of 90%.
`CNC(C)CC1CCCC1` (stereo not drawn) [Cyclopentamine] was tested, and the “Relative Reactivity” value (amphetamine antibody) was 0.33.
`CCC(=O)O[C@](Cc1ccccc1)(c1ccccc1)[C@H](C)CN(C)C` [Darvon] showed a Percent max. rate (morphine antibodies [2]; [3]) of 4%.
With `COc1ccc2c(c1)[C@]13CCCC[C@@H]1[C@H](C2)N(C)CC3` [Dextromethorphan] the “Relative Reactivity” value (methadone antibody) was 0.0042.
With `CCC(=O)O[C@](Cc1ccccc1)(c1ccccc1)[C@H](C)CN(C)C` [Dextropropoxyphene] the “Relative Reactivity” value (methadone antibody) was 0.00089.
With `CN[C@@H](C)[C@H](O)c1ccccc1` [Ephedrine] the “Relative Reactivity” value (amphetamine antibody) was 0.22.
`CC(COc1ccccc1)NC(C)C(O)c1ccc(O)cc1` (stereo not drawn) [Isoxsuprine] was tested, and the “Relative Reactivity” value (amphetamine antibody) was 0.2.
With `CNC(C)(C)Cc1ccccc1` [Mephentermine] the “Relative Reactivity” value (amphetamine antibody) was 0.62.
For `CCC(=O)C(CC(C)N(C)C)(c1ccccc1)c1ccccc1` (stereo not drawn) [Methadone], the Percent max. rate (morphine antibodies [2]; compound concentration 30 μg/ml (8.7 × 10^-5 M)) was 1% and the “Relative Reactivity” value (methadone antibody) was 1.
`CN[C@@H](C)Cc1ccccc1` [Methamphetamine] was tested, and the “Relative Reactivity” value (amphetamine antibody) was 1.1.
In the case of `CN1CC[C@]23c4c5ccc(O)c4O[C@H]2[C@@H](O)C=C[C@H]3[C@H]1C5` [Morphine], the Percent max. rate (morphine antibodies [2]; [4]) is reported as 5% and the Percent max. rate (morphine antibodies [2]; compound concentration 3 μg/ml) is reported as 67%.
In the case of `CC(CCc1ccccc1)NC(C)C(O)c1ccc(O)cc1` (stereo not drawn) [Nylidrin], the “Relative Reactivity” value (amphetamine antibody) is reported as 0.27.
For `CC(C)=CCN1CCC2(C)c3cc(O)ccc3CC1C2C` (stereo not drawn) [Pentazocine], the Percent max. rate (morphine antibodies [2]; [3]) was 3%.
In the case of `CC(CN1c2ccccc2Sc2ccccc21)N(C)C` (stereo not drawn) [Phenergan], the “Relative Reactivity” value (methadone antibody) is reported as 0.0125.
`NCCc1ccccc1` [Phenethylamine] was tested, and the “Relative Reactivity” value (amphetamine antibody) was 0.2.
`CCC1(c2ccccc2)C(=O)NC(=O)NC1=O` [Phenobarbital] gave a Percent max. rate (morphine antibodies [2]; [3]) of 0%.
For `CC(N)C(O)c1ccccc1` (stereo not drawn) [Phenylpropanolamine], the “Relative Reactivity” value (amphetamine antibody) was 0.33.
In the case of `CNC(C)CC1CCCCC1` (stereo not drawn) [Propylhexedrine], the “Relative Reactivity” value (amphetamine antibody) is reported as 0.05.
`CN(C)CCCN1c2ccccc2Sc2ccc(Cl)cc21` [Thorazine] showed a Percent max. rate (morphine antibodies [2]; compound concentration 35 μg/ml (9.9 × 10^-5 M)) of 6%.
`CC(N)Cc1ccc(O)cc1` (stereo not drawn) [p-Hydroxyamphetamine] was tested, and the “Relative Reactivity” value (amphetamine antibody) was 0.022.
For `CC(C)(N)Cc1ccccc1` [phentermine], the “Relative Reactivity” value (amphetamine antibody) was 0.62.
In the case of Hydromorphine, the Percent max. rate (morphine antibodies [2]; [4]) is reported as 6% and the Percent max. rate (morphine antibodies [2]; compound concentration 3 μg/ml) is reported as 55%.
Morphine glucuronide showed a Percent max. rate (morphine antibodies [2]; [4]) of 4% and a Percent max. rate (morphine antibodies [2]; compound concentration 10 μg/ml (2.1 × 10^-5 M)) of 77%.
